Results: patent US20170081338A1, “SUBSTITUTED HETEROARYL COMPOUNDS AND METHODS OF USE” (Sunshine Lake Pharma Co., Ltd., priority 2015, published 2017)

Columns and labels:
Aurora-A (h) = target: T1, Aurora-A (h) (Homo sapiens, UniProt O14965); assay: Aurora-A (h) kinase assay; type: biochemical
T1 construct: purchased Millipore UK Ltd (contract assay service)
T1 sequence (O14965 1-403): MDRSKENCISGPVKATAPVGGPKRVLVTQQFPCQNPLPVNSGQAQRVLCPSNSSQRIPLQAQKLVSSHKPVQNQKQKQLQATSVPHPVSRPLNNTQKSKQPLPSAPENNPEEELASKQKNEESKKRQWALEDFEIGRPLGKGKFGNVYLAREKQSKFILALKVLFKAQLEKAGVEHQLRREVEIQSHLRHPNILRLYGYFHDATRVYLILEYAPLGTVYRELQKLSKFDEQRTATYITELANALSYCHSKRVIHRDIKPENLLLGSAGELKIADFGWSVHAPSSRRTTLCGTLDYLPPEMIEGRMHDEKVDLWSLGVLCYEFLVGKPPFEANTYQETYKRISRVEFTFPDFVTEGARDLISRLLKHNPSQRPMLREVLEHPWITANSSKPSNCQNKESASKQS
Procedure: (§1) The above assay procedure can be used to determine the IC50 for inhibition and/or the inhibition constant, Ki. The IC50 is defined as the concentration of compound required to reduce the enzyme activity by 50% under the condition of the assay. The IC50 value is estimated by preparing a 10 point curve using a 1/2 log dilution series (for example, a typical curve may be prepared using the following compound concentrations: 3 μM, 1 μM, 0.3 μM, 0.1 μM, 0.03 μM, 0.01 μM, 0.003 μM, 0.001 μM, 0.0003 μM and 0 μM).
(§2) Aurora-A (h) is incubated with 8 mM MOPS pH 7.0, 0.2 mM EDTA, 200 μM LRRASLG (Kemptide), 10 mM MgAcetate and [γ-^33P-ATP] (specific activity approx. 500 cpm/pmol, concentration as required). The reaction is initiated by the addition of the MgATP mix. After incubation for 40 minutes at room temperature, the reaction is stopped by the addition of 3% phosphoric acid solution. 10 μL of the reaction is then spotted onto a P30 filtermat and washed three times for 5 minutes in 75 mM phosphoric acid and once in methanol prior to drying and scintillation counting.
(§3) The kinase assays described herein were performed at Millipore UK Ltd, Dundee Technology Park, Dundee DD2 1SW, UK.

[1] = Pharmacokinetics after intravenous and oral administration in rats; type: in vivo; conditions: for Clearance (CL) after iv dosing / AUC(0-t) / half-life / Vd: dose 1 mg/kg, iv dosing; for F: oral bioavailability; for AUC(0-t) / half-life / Vd: rat, plasma; for Vd: read-out: Vss
In short: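 Compounds dosed IV at 0.5, 1 or 2 mg/kg and orally at 0.5, 1, 5 or 10 mg/kg in rats, as solution, suspension or capsule formulations. Serial blood sampled out to 24 h and plasma stored frozen. Plasma levels quantified by LC/MS/MS in ESI MRM mode.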

Aurora-B (h) = target: T2, Aurora-B (h) (Homo sapiens, UniProt Q96GD4); assay: Aurora-B (h) kinase assay; type: biochemical
T2 construct: purchased Millipore UK Ltd (contract assay service)
T2 sequence (Q96GD4 whole entry): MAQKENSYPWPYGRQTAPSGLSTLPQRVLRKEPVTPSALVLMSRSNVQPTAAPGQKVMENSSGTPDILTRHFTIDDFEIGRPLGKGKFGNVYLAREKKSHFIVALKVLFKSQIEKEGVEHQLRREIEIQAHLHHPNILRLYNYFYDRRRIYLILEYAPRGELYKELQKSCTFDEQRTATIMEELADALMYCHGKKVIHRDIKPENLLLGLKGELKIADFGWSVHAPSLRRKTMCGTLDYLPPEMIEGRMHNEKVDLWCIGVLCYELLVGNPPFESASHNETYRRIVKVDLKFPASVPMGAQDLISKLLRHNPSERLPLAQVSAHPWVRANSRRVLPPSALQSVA
Procedure: (§4) Kinase assays can be performed by measurement of incorporation of γ-^33P ATP into immobilized myelin basic protein (MBP). High binding white 384 well plates (Greiner) are coated with MBP (Sigma #M-1891) by incubation of 60 μL/well of 20 μg/mL MBP in Tris-buffered saline (TBS; 50 mM Tris pH 8.0, 138 mM NaCl, 2.7 mM KCl) for 24 h at 4° C. Plates are washed 3× with 100 μL TBS. Kinase reactions are carried out in a total volume of 34 μL in kinase buffer (according to the need to make, for example, 5 mM Hepes pH 7.6, 15 mM NaCl, 0.01% bovine gamma globulin (Sigma #1-5506), 10 mM MgCl2, 1 mM DTT, 0.02% TritonX-100). Compound dilutions are performed in DMSO and added to assay wells to a final DMSO concentration of 1%. Each data point is measured in duplicate, and at least two duplicate assays are performed for each individual compound determination. Enzyme is added to final concentrations of 10 nM or 20 nM, for example. A mixture of unlabeled ATP and γ-^33P ATP is added to start the reaction (2×10^6 cpm of γ-^33P ATP per well (3000 Ci/mmole) and 10 μM unlabeled ATP, typically. The reactions are carried out for 1 h at room temperature with shaking. Plates are washed 7× with TBS, followed by the addition of 50 µL/well scintillation fluid (Wallac). Plates are read using a Wallac Trilux counter. This is only one format of such assays; various other formats are possible, as known to one skilled in the art.
as §1
Aurora-B (h) is incubated with 8 mM MOPS pH 7.0, 0.2 mM EDTA, 30 μM AKRRRLSSLRA, 10 mM MgAcetate and [γ-^33PATP] (specific activity approx. 500 cpm/pmol, concentration as required). The reaction is initiated by the addition of the MgATP mix. After incubation for 40 minutes at room temperature, the reaction is stopped by the addition of a 3% phosphoric acid solution. 10 μL of the reaction is then spotted onto a P30 filtermat and washed three times for 5 minutes in 75 mM phosphoric acid and once in methanol prior to drying and scintillation counting.
as §3

JAK1 (h) = target: T3, JAK1 (h) (Homo sapiens, UniProt P23458); assay: JAK1 (h) kinase assay; type: biochemical
T3 construct: purchased Millipore UK Ltd (contract assay service)
T3 sequence (P23458 whole entry): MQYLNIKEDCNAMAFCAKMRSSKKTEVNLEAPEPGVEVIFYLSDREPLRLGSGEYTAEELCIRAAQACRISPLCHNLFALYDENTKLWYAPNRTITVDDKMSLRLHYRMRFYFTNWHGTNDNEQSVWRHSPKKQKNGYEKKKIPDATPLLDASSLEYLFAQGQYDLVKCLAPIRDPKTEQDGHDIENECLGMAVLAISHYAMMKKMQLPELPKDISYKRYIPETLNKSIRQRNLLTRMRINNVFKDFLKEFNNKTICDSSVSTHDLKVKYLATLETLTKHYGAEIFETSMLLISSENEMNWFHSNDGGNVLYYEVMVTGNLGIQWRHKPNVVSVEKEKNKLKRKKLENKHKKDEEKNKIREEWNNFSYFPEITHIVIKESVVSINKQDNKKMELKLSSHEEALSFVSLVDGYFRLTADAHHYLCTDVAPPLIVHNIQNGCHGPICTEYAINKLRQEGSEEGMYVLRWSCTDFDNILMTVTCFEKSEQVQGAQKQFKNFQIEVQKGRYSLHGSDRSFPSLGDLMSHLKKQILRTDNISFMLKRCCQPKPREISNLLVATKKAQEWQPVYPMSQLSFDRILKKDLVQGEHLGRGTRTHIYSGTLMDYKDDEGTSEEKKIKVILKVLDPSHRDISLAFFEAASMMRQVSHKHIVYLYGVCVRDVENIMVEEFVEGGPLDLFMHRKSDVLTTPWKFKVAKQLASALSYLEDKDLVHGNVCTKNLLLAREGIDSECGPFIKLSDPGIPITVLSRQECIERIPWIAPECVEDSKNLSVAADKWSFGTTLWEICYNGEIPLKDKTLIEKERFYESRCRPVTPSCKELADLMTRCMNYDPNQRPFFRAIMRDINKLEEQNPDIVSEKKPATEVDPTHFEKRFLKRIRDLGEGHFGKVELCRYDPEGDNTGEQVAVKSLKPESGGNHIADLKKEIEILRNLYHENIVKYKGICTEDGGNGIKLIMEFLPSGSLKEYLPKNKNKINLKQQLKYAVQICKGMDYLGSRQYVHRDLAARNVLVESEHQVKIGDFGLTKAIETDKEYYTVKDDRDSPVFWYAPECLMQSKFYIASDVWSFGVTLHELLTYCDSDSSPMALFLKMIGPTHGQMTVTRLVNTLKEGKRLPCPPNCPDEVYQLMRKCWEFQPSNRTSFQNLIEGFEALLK
Procedure: as §4, §1
as §2, with “JAK1” for “Aurora-A”, “20” for “8”, “Tris/HCl” for “MOPS”, “7.5,” for “7.0,”, “500” for “200”, “GEEPLYWSFPAKKK,” for “LRRASLG (Kemptide),”
as §3

Row | Structure (SMILES) | IC50 (Aurora-A (h)) [µM] | Clearance (CL) after iv dosing [1] [L/h/kg] | F [1] [%] | AUC(0-t) [1] [µg·h/mL] | half-life [1] [min] | Vd [1] [L/kg] | IC50 (Aurora-B (h)) [µM] | IC50 (JAK1 (h)) [µM]
1 | Cn1cc(Nc2ncc(Cl)c(N[C@@H]3COC4C3OC[C@@H]4NS(=O)(=O)CC3CCC3)n2)cn1 (stereo partly drawn) [Ex. 31, N-((3S,6R)-6-((5-chloro-2-((1-methyl-1H-pyrazol-4-yl)amino)pyrimidin-4-yl)amino)hexahydrofuro[3,2-b]furan-3-yl)-1-cyclobutylmethanesulfonamide] | 0.012 | 1.13 | 88.1 | 0.947 | 37.2 | 0.71 | 0.018 | –
2 | CCC(C)CS(=O)(=O)N[C@H]1COC2C1OC[C@H]2Nc1nc(Nc2cnn(C)c2)ncc1Cl (stereo partly drawn) [Ex. 33, N-((3S,6R)-6-((5-chloro-2-((1-methyl-1H-pyrazol-4-yl)amino)pyrimidin-4-yl)amino)hexahydrofuro[3,2-b]furan-3-yl)-2-methylbutane-1-sulfonamide] | 0.018 | 1.39 | 53.6 | 0.725 | 17.4 | 0.57 | 0.025 | –
3 | Cn1cc(Nc2ncc(Cl)c(N[C@@H]3COC4C3OC[C@@H]4NS(=O)(=O)CC(C)(C)C)n2)cn1 (stereo partly drawn) [Ex. 30, N-((3S,6R)-6-((5-chloro-2-((1-methyl-1H-pyrazol-4-yl)amino)pyrimidin-4-yl)amino)hexahydrofuro[3,2-b]furan-3-yl)-2,2-dimethylpropane-1-sulfonamide] | 0.017 | 1.45 | 67.4 | 0.696 | 37.8 | 0.82 | 0.008 | –
4 | Cn1cc(Nc2ncc(Cl)c(N[C@@H]3COC4C3OC[C@@H]4NS(=O)(=O)CC3CCCO3)n2)cn1 (stereo partly drawn) [Ex. 34, N-((3S,6R)-6-((5-chloro-2-((1-methyl-1H-pyrazol-4-yl)amino)pyrimidin-4-yl)amino)hexahydrofuro[3,2-b]furan-3-yl)-1-(tetrahydrofuran-2-yl)methanesulfonamide] | 0.024 | – | 28.9 | 1.54 | 37.8 | 1.23 | 0.021 | –
5 | Cn1cc(Nc2ncc(Cl)c(N[C@@H]3COC4C3OC[C@@H]4NS(=O)(=O)CC3CCCC3)n2)cn1 (stereo partly drawn) [Ex. 21, N-((3S,6R)-6-((5-chloro-2-((1-methyl-1H-pyrazol-4-yl)amino)pyrimidin-4-yl)amino)hexahydrofuro[3,2-b]furan-3-yl)-1-cyclopentylmethanesulfonamide] | 0.002 | 1.49 | 63.7 | 0.68 | 18 | 0.69 | 0.006 | 0.024
